Results taken from ChEMBL document CHEMBL5303573, “Mapping human microbiome drug metabolism by gut bacteria and their genes” (Nature, 2019).

Columns and labels:
[1] = The drug is tested on Collinsella aerofaciens strain: ATCC25986 for biotransformation. The drug concentrations were measured before and after a 12-h incubation by liquid-chromatography-coupled mass spectrometry (LC–MS); settings: 2 µM
[2] = bacteroides fragilis, 12 h, 2 µM
Description: The drug is tested on Bacteroides fragilis strain: 3397 (T10) for biotransformation. The drug concentrations were measured before and after a 12-h incubation by liquid-chromatography-coupled mass spectrometry (LC–MS)

[3] = The drug is tested on Clostridium sp. strain: fecal isolate for biotransformation. The drug concentrations were measured before and after a 12-h incubation by liquid-chromatography-coupled mass spectrometry (LC–MS); settings: 2 µM
[4] = The drug is tested on Clostridium symbiosum strain: ATCC14940 for biotransformation. The drug concentrations were measured before and after a 12-h incubation by liquid-chromatography-coupled mass spectrometry (LC–MS); settings: 2 µM
[5] = bifidobacterium adolescentis, 12 h, 2 µM
Description: The drug is tested on Bifidobacterium adolescentis strain: ATCC 15703 for biotransformation. The drug concentrations were measured before and after a 12-h incubation by liquid-chromatography-coupled mass spectrometry (LC–MS)

[6] = The drug is tested on Bacteroides caccae strain: ATCC43185 for biotransformation. The drug concentrations were measured before and after a 12-h incubation by liquid-chromatography-coupled mass spectrometry (LC–MS); settings: 2 µM
[7] = The drug is tested on Anaerococcus hydrogenalis strain: DSM7454 for biotransformation. The drug concentrations were measured before and after a 12-h incubation by liquid-chromatography-coupled mass spectrometry (LC–MS); settings: 2 µM
[8] = The drug is tested on Ruminococcus lactaris strain: ATCC29176 for biotransformation. The drug concentrations were measured before and after a 12-h incubation by liquid-chromatography-coupled mass spectrometry (LC–MS); settings: 2 µM
[9] = anaerostipes sp., 12 h, 2 µM
Description: The drug is tested on Anaerostipes sp. strain: fecal isolate for biotransformation. The drug concentrations were measured before and after a 12-h incubation by liquid-chromatography-coupled mass spectrometry (LC–MS)

[10] = The drug is tested on Dorea formicigenerans strain: ATCC27755 for biotransformation. The drug concentrations were measured before and after a 12-h incubation by liquid-chromatography-coupled mass spectrometry (LC–MS); settings: 2 µM
[11] = bacteroides fragilis, 12 h, 2 µM; remark: listed apart in the source
Description: The drug is tested on Bacteroides fragilis strain: NCTC 9343 for biotransformation. The drug concentrations were measured before and after a 12-h incubation by liquid-chromatography-coupled mass spectrometry (LC–MS)

[12] = The drug is tested on Bifidobacterium longum subsp. Infantis strain: CCUG52486 for biotransformation. The drug concentrations were measured before and after a 12-h incubation by liquid-chromatography-coupled mass spectrometry (LC–MS); settings: 2 µM
[13] = The drug is tested on Eubacterium ventriosum strain: ATCC27560 for biotransformation. The drug concentrations were measured before and after a 12-h incubation by liquid-chromatography-coupled mass spectrometry (LC–MS); assay type: ADME; parameters: dose 2 uM, timepoint 0 vs 12 hours; settings: 2 µM
[14] = parabacteroides distasonis, 12 h, 2 µM
Description: The drug is tested on Parabacteroides distasonis strain: ATCC8503 for biotransformation. The drug concentrations were measured before and after a 12-h incubation by liquid-chromatography-coupled mass spectrometry (LC–MS)

[15] = The drug is tested on Ruminococcus gnavus strain: ATCC29149 for biotransformation. The drug concentrations were measured before and after a 12-h incubation by liquid-chromatography-coupled mass spectrometry (LC–MS); settings: mediterraneibacter gnavus, 2 µM
[16] = bacteroides fragilis, 12 h, 2 µM; remark: listed apart in the source
Description: The drug is tested on Bacteroides fragilis strain: DS-208 for biotransformation. The drug concentrations were measured before and after a 12-h incubation by liquid-chromatography-coupled mass spectrometry (LC–MS)

[17] = The drug is tested on Edwardsiella tarda strain: ATCC23685 for biotransformation. The drug concentrations were measured before and after a 12-h incubation by liquid-chromatography-coupled mass spectrometry (LC–MS); settings: 2 µM
[18] = The drug is tested on Escherichia coli strain: BW25113 for biotransformation. The drug concentrations were measured before and after a 12-h incubation by liquid-chromatography-coupled mass spectrometry (LC–MS); settings: 2 µM

SMILES	Bacterial Biotransformation [1]	Bacterial Biotransformation [2]	Bacterial Biotransformation [3]	Bacterial Biotransformation [4]	Bacterial Biotransformation [5]	Bacterial Biotransformation [6]	Bacterial Biotransformation [7]	Bacterial Biotransformation [8]	Bacterial Biotransformation [9]	Bacterial Biotransformation [10]	Bacterial Biotransformation [11]	Bacterial Biotransformation [12]	Bacterial Biotransformation [13]	Bacterial Biotransformation [14]	Bacterial Biotransformation [15]	Bacterial Biotransformation [16]	Bacterial Biotransformation [17]	Bacterial Biotransformation [18]
O=C(O)CCC(=O)O.O=C(O[C@H]1CN2CCC1CC2)N1CCc2ccccc2[C@@H]1c1ccccc1 [SOLIFENACIN SUCCINATE]	Compound NOT metabolized	Compound NOT metabolized	Compound NOT metabolized	Compound NOT metabolized	Compound NOT metabolized	Compound NOT metabolized	Compound NOT metabolized	Compound NOT metabolized	Compound NOT metabolized	Compound NOT metabolized	Compound NOT metabolized	Compound NOT metabolized	Compound NOT metabolized	Compound NOT metabolized	Compound NOT metabolized	Compound NOT metabolized	Compound NOT metabolized	–
CCc1cccc2c3c([nH]c12)C(CC)(CC(=O)O)OCC3 (stereo unspecified) [ETODOLAC]	Compound NOT metabolized	Compound NOT metabolized	Compound NOT metabolized	Compound NOT metabolized	Compound NOT metabolized	Compound NOT metabolized	Compound NOT metabolized	Compound NOT metabolized	Compound NOT metabolized	Compound NOT metabolized	–	Compound NOT metabolized	Compound NOT metabolized	Compound NOT metabolized	Compound NOT metabolized	Compound metabolized	Compound NOT metabolized	Compound NOT metabolized
O=C(CCCN1CCC2(CC1)C(=O)NCN2c1ccccc1)c1ccc(F)cc1 [SPIPERONE]	Compound NOT metabolized	Compound NOT metabolized	Compound NOT metabolized	Compound NOT metabolized	Compound NOT metabolized	Compound NOT metabolized	Compound NOT metabolized	Compound NOT metabolized	Compound NOT metabolized	Compound NOT metabolized	Compound NOT metabolized	Compound NOT metabolized	Compound NOT metabolized	–	Compound NOT metabolized	Compound NOT metabolized	Compound NOT metabolized	Compound NOT metabolized
CCN1CCCC1CNC(=O)c1cc(S(N)(=O)=O)ccc1OC (stereo unspecified) [SULPIRIDE]	Compound NOT metabolized	–	Compound NOT metabolized	Compound NOT metabolized	Compound NOT metabolized	Compound NOT metabolized	Compound NOT metabolized	Compound NOT metabolized	Compound NOT metabolized	Compound NOT metabolized	Compound NOT metabolized	Compound NOT metabolized	Compound NOT metabolized	–	Compound NOT metabolized	–	Compound NOT metabolized	Compound NOT metabolized
CN1CC(=O)N2[C@H](c3ccc4c(c3)OCO4)c3[nH]c4ccccc4c3C[C@@H]2C1=O	Compound NOT metabolized	Compound NOT metabolized	Compound NOT metabolized	Compound NOT metabolized	Compound NOT metabolized	Compound NOT metabolized	Compound NOT metabolized	Compound NOT metabolized	Compound NOT metabolized	Compound NOT metabolized	Compound NOT metabolized	–	Compound NOT metabolized	Compound NOT metabolized	Compound NOT metabolized	–	Compound NOT metabolized	–
CNS(=O)(=O)Cc1ccc2[nH]cc(CCN(C)C)c2c1.O=C(O)CCC(=O)O [SUMATRIPTAN SUCCINATE]	Compound NOT metabolized	–	Compound NOT metabolized	Compound NOT metabolized	Compound NOT metabolized	Compound NOT metabolized	Compound NOT metabolized	Compound NOT metabolized	Compound NOT metabolized	Compound NOT metabolized	Compound NOT metabolized	Compound NOT metabolized	Compound NOT metabolized	Compound NOT metabolized	Compound NOT metabolized	Compound metabolized	Compound NOT metabolized	Compound NOT metabolized
CC(CN(C)C)CN1c2ccccc2CCc2ccccc21.O=C(O)/C=C\C(=O)O (stereo unspecified) [TRIMIPRAMINE MALEATE]	Compound NOT metabolized	Compound NOT metabolized	Compound NOT metabolized	Compound NOT metabolized	Compound NOT metabolized	Compound NOT metabolized	Compound NOT metabolized	Compound NOT metabolized	Compound NOT metabolized	Compound NOT metabolized	–	Compound NOT metabolized	Compound NOT metabolized	Compound NOT metabolized	Compound NOT metabolized	Compound NOT metabolized	Compound NOT metabolized	Compound NOT metabolized
N=C(N)NC(=O)Cc1c(Cl)cccc1Cl [GUANFACINE]	Compound NOT metabolized	Compound NOT metabolized	–	Compound NOT metabolized	Compound NOT metabolized	Compound NOT metabolized	Compound NOT metabolized	Compound NOT metabolized	Compound NOT metabolized	Compound NOT metabolized	Compound NOT metabolized	Compound NOT metabolized	–	Compound NOT metabolized	Compound NOT metabolized	Compound NOT metabolized	Compound NOT metabolized	Compound NOT metabolized
